Reference: patent US20240287123A1 (Victoria Link Limited, priority 2021, published 2024)
Entries after “also recorded” stand apart in the source; their conditions may differ. Read-outs that look alike come from different tables or passages of the source.

Legend:
primary human MDM = assay: Toxicity to MDM: LDH assay and light microscopy; format: cell-based
Description: Light microscopy was used to image MDMs on day 7 of infection. […] Colorimetric LDH assays were also performed on culture supernatants from these same cells on day 4 of infection to assess cell death.
At the end of each experiment, cells were imaged by light microscopy. After aspirating off media, cells were washed with PBS, and lysates were harvested in extraction buffer containing 0.1% Formic acid, 50% ACN, 40% MeOH, 10% H2O.
Drug toxicity was analyzed using an LDH assay kit according to manufacturer's instructions (Abcam #ab65393, Toronto, Canada). Briefly, supernatants from duplicate plates per treatment condition were added to a 96-well plate. Each supernatant was run in triplicate. Provided assay buffer was added to culture supernatants after mixing with a substrate solution that turns orange upon lactate exposure. After incubation for 30-45 min, colorimetric signal was quantified an OD of 450 nm. LDH was a positive control as well as cells lysed with 10% lysis buffer in media representing the “high control” to which % cytotoxicity was measured. The reference sample was either control uninfected cells treated with DMSO or negative control HIV-infected cells treated with DMSO. Culture media alone was used as a technical negative control. This background signal that was subtracted from all test wells.

HIVADA = assay: HIV p24 alphaLISA in infected monocyte derived macrophages; format: cell-based, Human Immunodeficiency Virus
Description: Primary human MDMs were cultured from peripheral blood mononuclear cells and pre-treated for 24 h with ddhC (100 μM), compound 8 (100 μM), compound 21 (100 μM), emtricitabine control (15 μM, 10 μM, 1 μM, 0.1 μM), or the drug vehicle, DMSO. MDM were then infected with HIVADA in the presence of these compounds and treated daily (with compound), while culture supernatants were collected to quantify levels of HIV p24, a viral capsid protein, on days 2-7 of infection.
Leukopaks from healthy donors were obtained from the New York Blood Center and processed by Ficoll gradient centrifugation to isolate peripheral blood mononuclear cells (PBMC). These PBMC were cultured adherently into monocyte derived macrophages (MDM), according to published protocols, on 60 mm dishes for 6 days with 10-20 ng/ml macrophage colony stimulating factor (M-CSF). MDM were pre-treated with ddhC, compound 8, compound 21, emtricitabine (Cat. No .: 10071), or DMSO vehicle at indicated concentrations for 24 hours (NIH AIDS Reagent Program, Bethesda, MD). Cells were left uninfected or infected for 24 h in the presence of one of the compounds listed above with 20 ng/mL HIVADA, a macrophage-tropic HIV strain originally derived from a person with HIV (NIH). Media was changed daily with the mentioned compounds added each time, and supernatants were collected on days 2, 3, 4, 5, 6, and 7 of infection. Each treatment condition was analyzed in duplicate plates per experiment.
Supernatant samples were analyzed for the viral capsid protein, HIV p24, by a sensitive p24 alphaLISA according to the manufacturer's protocol (Perkin-Elmer, Waltham, MA). Treatment conditions were analyzed in duplicate plates, and each supernatant was analyzed in duplicate on a 96-well alphaLISA plate. These were then fit to a sigmoid standard curve to extrapolate HIV p24 levels in pg/mL within the assay limits of detection.

[1] = Cytotoxicity in Akata cells (CTG), concurrent with EBV assay; format: cell-based; details: human, Akata cells (without virus induction), Table 1
Description: (§1) Each experiment that evaluates the antiviral activity of compounds includes both positive and negative control compounds to ensure the performance of each assay. Concurrent assessment of cytotoxicity was also performed for each study in the same cell line and with the same compound exposure.
Assays for EBV were performed by reported methods.^37 Akata cells were induced to undergo a lytic infection with 50 μg/ml of a goat anti-human IgG antibody. Experimental compounds were diluted within plates. The cells were added and incubated for 72 h. Similar plates were initiated without virus induction/addition and used for measuring cytotoxicity by the addition of CTG. For all assays, the replication of the virus was assessed by the quantification of viral DNA. […] Compound concentrations sufficient to reduce genome copy number by 50% were calculated from experimental data as well as compound cytotoxicity.

[2] = Cytotoxicity in HFF cells (CellTiter-Glo), concurrent with HCMV assay; format: cell-based; details: human
Description: Human foreskin fibroblast (HFF) cells prepared from human foreskin tissue were obtained from the University of Alabama at Birmingham tissue procurement facility with approval from its IRB. The tissue was incubated at 4° C. for 4 h in Clinical Medium consisting of minimum essential media (MEM) with Earl's salts supplemented with 10% fetal bovine serum (FBS) (Hyclone, Inc. Logan UT), L-glutamine, fungizone, and vancomycin. Tissue was then placed in phosphate buffered saline (PBS), minced, rinsed to remove the red blood cells, and resuspended in trypsin/EDTA solution. The tissue suspension was incubated at 37° C. and gently agitated to disperse the cells, which were collected by centrifugation. Cells were resuspended in 4 ml Clinical Medium and placed in a 25 cm^2 flask and incubated at 37° C. in a humidified CO2 incubator for 24 h. The media was then replaced with fresh Clinical Medium and the cell growth was monitored daily until a confluent monolayer had formed. The HFF cells were then expanded through serial passages in standard growth medium of MEM with Earl's salts supplemented with 10% FBS, L-glutamine, penicillin, and gentamycin. The cells were passaged routinely and used for assays at or below passage ^10.37,38
as §1
Assays were performed in monolayers as described.37 Cells were seeded in 384 well plates and incubated for 24 h to allow the formation of confluent monolayers. Dilutions of test drug were prepared directly in the plates and the monolayers infected at a predetermined MOI based on virus used. After incubation, cytopathology was determined by the addition of CellTiter-Glo (CTG) reagent. Concentrations of test compound sufficient to reduce CPE by 50% (EC50) or decrease cell viability by 50% (CC50) were interpolated using standard methods in Microsoft Excel. Toxicity was measured using CTG as above.

EBV (Akata/Akata) = assay: EBV assay: viral DNA quantification in induced Akata cells; format: cell-based, Epstein-Barr virus; details: for EC50: human gammaherpesvirus 4, Akata
Description: Akata cells were obtained from Louisiana State University, Baton Rouge, LA. The HCMV strain AD169 was obtained from the American Type Culture Collection (ATCC, Manassas, VA). Akata cells latently infected with EBV were obtained from Louisiana State University, Baton Rouge, LA.
as §1
Assays for EBV were performed by reported methods.^37 Akata cells were induced to undergo a lytic infection with 50 μg/ml of a goat anti-human IgG antibody. Experimental compounds were diluted within plates. The cells were added and incubated for 72 h. Similar plates were initiated without virus induction/addition and used for measuring cytotoxicity by the addition of CTG. For all assays, the replication of the virus was assessed by the quantification of viral DNA. For EBV, primers 5′-[…]-3′ and 5′-CAG TTC CTC GCCTTAGGTTG-3 amplified a fragment corresponding to coordinates 96802-97234 in EBV genome (AJ507799). Compound concentrations sufficient to reduce genome copy number by 50% were calculated from experimental data as well as compound cytotoxicity.

In the case of `CC(C)C(=O)OCC1=C[C@@H](O)[C@H](n2ccc(N)nc2=O)O1` [Compound 8, 3′-Deoxy-3′,4′-didehydro-5′-O-isobutyroyl-cytidine], the “LDH activity in HIV-infected MDMs relative to DMSO controls” value (primary human MDM; 100 μM, day 4 of infection) is reported as “nearly identical”, the “LDH activity relative to uninfected DMSO controls” value (primary human MDM; 100 μM, uninfected or HIV-infected MDMs, day 4 of infection) is reported as “no significant difference” and the “toxicity to MDMs” value (primary human MDM; 100 uM, visual inspection by light microscopy and colorimetric LDH assays) is reported as “non-toxic”. The “reduction of p24 levels” value (HIVADA; 10 μM, by day 6 of infection) was roughly 50%, the “levels of HIV p24 viral capsid protein” value (HIVADA; 100 μM, infected MDM, days 2-7, compared with DMSO control) was “significantly reduce; also recorded: significantly decreased” and the “impact on HIV replication relative to the DMSO control” value (HIVADA; low doses: compound 8 compound 21 (0.1-1 μM) as printed) was “minimal impact”. For the same molecule, the CC50 at 72 h [1] was greater than 50 µM, the CC50 [2] was greater than 50 µM and the “activity against EBV” value (EBV (Akata/Akata); cell-based assay, highest concentration tested in primary assays 50 μM) was “performed most favourably”. It also gave an EC50 (EBV (Akata/Akata); Akata/Akata, Table 1, read-out: EBV EC50) of 7.6 µM, an EC50 (EBV (Akata/Akata); read-out: Result for compound (EC50/UM), EBV Akata/Akata, assay order Primary) of 7.59 µM and an EC50 (EBV (Akata/Akata); read-out: EC50 against EBV) of 7.6 to 38.7 µM.
